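A five-concentration, 48-hour dose response in 96-well plates underlies each endpoint, interpolated linearly between surrounding concentrations. Abbreviation: GI50, concentration required for 50% inhibition of growth. Definition used: TGI = concentration required for complete inhibition of growth.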
Legend:
Test in all cases: DTP human tumour cell line panel, 48 h
HOP-92 NSCLC = test system: HOP-92 NSCLC
UO-31 renal = test system: UO-31 renal
SK-MEL-2 melanoma = test system: SK-MEL-2 melanoma
MDA-MB-435 = test system: MDA-MB-435
SF-295 CNS = test system: SF-295 CNS
HS 578T breast = test system: HS 578T breast
KM12 colon = test system: KM12 colon
EKVX NSCLC = test system: EKVX NSCLC
A549 NSCLC = test system: A549 NSCLC
HL-60(TB) leukemia = test system: HL-60(TB) leukemia
OVCAR-3 ovarian = test system: OVCAR-3 ovarian
SN12C renal = test system: SN12C renal
OVCAR-4 ovarian = test system: OVCAR-4 ovarian
SK-MEL-5 melanoma = test system: SK-MEL-5 melanoma
SK-MEL-28 melanoma = test system: SK-MEL-28 melanoma
MDA-MB-231 breast = test system: MDA-MB-231 breast
BT-549 breast = test system: BT-549 breast
SNB-19 CNS = test system: SNB-19 CNS
HT29 colon = test system: HT29 colon
OVCAR-5 ovarian = test system: OVCAR-5 ovarian
DU-145 prostate = test system: DU-145 prostate
786-0 renal = test system: 786-0 renal
MALME-3M melanoma = test system: MALME-3M melanoma
PC-3 prostate = test system: PC-3 prostate
HCT-15 colon = test system: HCT-15 colon
K-562 leukemia = test system: K-562 leukemia
OVCAR-8 ovarian = test system: OVCAR-8 ovarian
UACC-62 melanoma = test system: UACC-62 melanoma
MOLT-4 leukemia = test system: MOLT-4 leukemia
SW-620 colon = test system: SW-620 colon
CCRF-CEM leukemia = test system: CCRF-CEM leukemia
SK-OV-3 ovarian = test system: SK-OV-3 ovarian
TK-10 renal = test system: TK-10 renal
T-47D breast = test system: T-47D breast
NCI-H226 lung = test system: NCI-H226 lung
RXF 393 renal = test system: RXF 393 renal
HOP-62 NSCLC = test system: HOP-62 NSCLC
A498 renal = test system: A498 renal
NCI-H522 lung = test system: NCI-H522 lung
CAKI-1 renal = test system: CAKI-1 renal
ACHN renal = test system: ACHN renal
UACC-257 melanoma = test system: UACC-257 melanoma
MCF7 breast = test system: MCF7 breast
COLO 205 colon = test system: COLO 205 colon
NCI-H23 lung = test system: NCI-H23 lung
NCI/ADR-RES ovarian = test system: NCI/ADR-RES ovarian
SR leukemia = test system: SR leukemia
U251 CNS = test system: U251 CNS
HCC-2998 colon = test system: HCC-2998 colon
IGROV1 ovarian = test system: IGROV1 ovarian
SNB-75 CNS = test system: SNB-75 CNS
LOX IMVI melanoma = test system: LOX IMVI melanoma
M14 melanoma = test system: M14 melanoma
RPMI-8226 leukemia = test system: RPMI-8226 leukemia
NCI-H460 lung = test system: NCI-H460 lung
SF-268 CNS = test system: SF-268 CNS
HCT-116 colon = test system: HCT-116 colon
SF-539 CNS = test system: SF-539 CNS

## COc1ccc(C(C)=C(c2ccc(OCCN(C)C)cc2)c2ccc(OCCN(C)C)cc2)cc1
HOP-92 NSCLC
  GI50: 0.633 µM
  TGI: 3.17 µM
UO-31 renal
  GI50: 0.804 µM
  TGI: 2.11 µM
SK-MEL-2 melanoma
  GI50: 0.588 µM
  TGI: 1.39 µM
MDA-MB-435
  GI50: 0.507 µM
  TGI: 1.13 µM
SF-295 CNS
  GI50: 0.51 µM
  TGI: 1.18 µM
HS 578T breast
  GI50: 0.884 µM
  TGI: 4.25 µM
KM12 colon
  GI50: 1.07 µM
  TGI: 4.21 µM
EKVX NSCLC
  GI50: 1.65 µM
  TGI: 5.25 µM
A549 NSCLC
  GI50: 1.03 µM
  TGI: 4.48 µM
HL-60(TB) leukemia
  GI50: 0.477 µM
  TGI: 0.999 µM
OVCAR-3 ovarian
  GI50: 0.585 µM
  TGI: 1.79 µM
SN12C renal
  GI50: 2 µM
  TGI: 6.09 µM
OVCAR-4 ovarian
  GI50: 0.865 µM
  TGI: 3.25 µM
SK-MEL-5 melanoma
  GI50: 0.432 µM
  TGI: 0.794 µM
SK-MEL-28 melanoma
  GI50: 0.464 µM
  TGI: 0.904 µM
MDA-MB-231 breast
  GI50: 0.684 µM
  TGI: 2.29 µM
BT-549 breast
  GI50: 1.85 µM
  TGI: 5.24 µM
SNB-19 CNS
  GI50: 1.33 µM
  TGI: 4.86 µM
HT29 colon
  GI50: 0.49 µM
  TGI: 1.63 µM
OVCAR-5 ovarian
  GI50: 1.72 µM
  TGI: 5.01 µM
DU-145 prostate
  GI50: 1.81 µM
  TGI: 5.18 µM
786-0 renal
  GI50: 0.445 µM
  TGI: 1.1 µM
MALME-3M melanoma
  GI50: 0.439 µM
  TGI: 0.893 µM
PC-3 prostate
  GI50: 1.36 µM
  TGI: 4.81 µM
HCT-15 colon
  GI50: 0.582 µM
  TGI: 2.05 µM
K-562 leukemia
  GI50: 0.395 µM
  TGI: 0.918 µM
OVCAR-8 ovarian
  GI50: 1.17 µM
  TGI: 4.54 µM
UACC-62 melanoma
  GI50: 0.533 µM
  TGI: 1.25 µM
MOLT-4 leukemia
  GI50: 0.544 µM
  TGI: 1.61 µM
SW-620 colon
  GI50: 0.639 µM
  TGI: 2.22 µM
CCRF-CEM leukemia
  GI50: 0.624 µM
  TGI: 2.36 µM
SK-OV-3 ovarian
  GI50: 3.91 µM
  TGI: 7.51 µM
TK-10 renal
  GI50: 3.31 µM
  TGI: 6.86 µM
T-47D breast
  GI50: 0.374 µM
  TGI: 0.966 µM
NCI-H226 lung
  GI50: 3.03 µM
  TGI: 6.89 µM
RXF 393 renal
  GI50: 0.381 µM
  TGI: 0.934 µM
HOP-62 NSCLC
  GI50: 1.36 µM
  TGI: 3.42 µM
A498 renal
  GI50: 1.13 µM
  TGI: 4.15 µM
NCI-H522 lung
  GI50: 0.866 µM
  TGI: 3.62 µM
CAKI-1 renal
  GI50: 0.647 µM
  TGI: 2.31 µM
ACHN renal
  GI50: 0.763 µM
  TGI: 2.51 µM
UACC-257 melanoma
  GI50: 0.469 µM
  TGI: 0.957 µM
MCF7 breast
  GI50: 0.243 µM
  TGI: 0.889 µM
COLO 205 colon
  GI50: 0.432 µM
  TGI: 0.908 µM
NCI-H23 lung
  GI50: 2.95 µM
  TGI: 6.53 µM
NCI/ADR-RES ovarian
  GI50: 1.34 µM
  TGI: 4.68 µM
SR leukemia
  GI50: 0.321 µM
  TGI: 0.941 µM
U251 CNS
  GI50: 0.679 µM
  TGI: 2.61 µM
HCC-2998 colon
  GI50: 0.858 µM
  TGI: 3.49 µM
IGROV1 ovarian
  GI50: 1.1 µM
  TGI: 3.92 µM
SNB-75 CNS
  GI50: 2.28 µM
  TGI: 5.95 µM
LOX IMVI melanoma
  GI50: 0.343 µM
  TGI: 0.741 µM
M14 melanoma
  GI50: 0.427 µM
  TGI: 0.824 µM
RPMI-8226 leukemia
  GI50: 0.584 µM
  TGI: 1.51 µM
NCI-H460 lung
  GI50: 0.828 µM
  TGI: 2.94 µM
SF-268 CNS
  GI50: 1.11 µM
  TGI: 4.35 µM
HCT-116 colon
  GI50: 0.415 µM
  TGI: 2.45 µM
SF-539 CNS
  GI50: 0.468 µM
  TGI: 0.948 µM

Source: PubChem BioAssay (NCI)
